Test results taken from article PMC7979765, “trans-Translation inhibitors bind to a novel site on the ribosome and clear Neisseria gonorrhoeae in vivo” (Nature Communications, 2021).
Values after ≈ are worked out from the molar mass of the structure shown. Values joined by “and” are separate entries in the source; they are usually repeats but may differ in a detail not shown here. Equal entries are not always repeated. Where two headings read alike, the source gives them in different places.

Assays:
[1] = tested on: Klebsiella pneumoniae; assay: MIC, microbroth dilution; type: cell-based
[2] = tested on: Staphylococcus aureus; assay: MIC, microbroth dilution; type: cell-based
[3] = target: T1, Cannabinoid CB2 (Homo sapiens, UniProt P34972); assay: Receptor Profiling 217100; type: binding
T1 construct: purchased Eurofins Discovery Services (Panlabs safety panel)
T1 sequence (P34972 whole entry): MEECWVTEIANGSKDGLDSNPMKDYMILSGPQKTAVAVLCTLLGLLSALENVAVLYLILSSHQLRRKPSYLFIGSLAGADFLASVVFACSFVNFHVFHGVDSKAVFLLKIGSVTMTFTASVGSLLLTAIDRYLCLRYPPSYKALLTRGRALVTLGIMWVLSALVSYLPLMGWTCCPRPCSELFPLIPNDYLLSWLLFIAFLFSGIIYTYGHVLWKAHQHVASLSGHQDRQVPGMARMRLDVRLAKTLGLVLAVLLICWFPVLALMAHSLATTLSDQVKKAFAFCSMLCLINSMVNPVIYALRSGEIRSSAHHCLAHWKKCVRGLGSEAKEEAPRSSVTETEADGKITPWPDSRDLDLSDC
Description: (§1) Several in vitro selectivity assays were performed at Eurofins Discovery Services using established methods and controls that behaved as expected (Supplementary Tables 5 and 6). […] For receptor panel profiling, MBX-4132 was evaluated at 10 μM and activity of >50% (agonist or antagonist; note that negative % inhibition indicates agonism) was scored as active.

[4] = Liver microsome stability, murine; type: in vitro ADME, mouse
How it was run: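 Compounds incubated with liver microsomes plus NADPH over 30 min; parent remaining quantified by reverse-phase LC/MS. Half-life from linear regression over several time points.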

[5] = target: T2, Nicotinic Acetylcholine α4β2, Cytisine (Homo sapiens, UniProt P17787+P43681); assay: Receptor Profiling 299031; type: binding
T2 construct: purchased Eurofins Discovery Services (Panlabs safety panel)
T2 sequence (P43681 29-627 limits assumed): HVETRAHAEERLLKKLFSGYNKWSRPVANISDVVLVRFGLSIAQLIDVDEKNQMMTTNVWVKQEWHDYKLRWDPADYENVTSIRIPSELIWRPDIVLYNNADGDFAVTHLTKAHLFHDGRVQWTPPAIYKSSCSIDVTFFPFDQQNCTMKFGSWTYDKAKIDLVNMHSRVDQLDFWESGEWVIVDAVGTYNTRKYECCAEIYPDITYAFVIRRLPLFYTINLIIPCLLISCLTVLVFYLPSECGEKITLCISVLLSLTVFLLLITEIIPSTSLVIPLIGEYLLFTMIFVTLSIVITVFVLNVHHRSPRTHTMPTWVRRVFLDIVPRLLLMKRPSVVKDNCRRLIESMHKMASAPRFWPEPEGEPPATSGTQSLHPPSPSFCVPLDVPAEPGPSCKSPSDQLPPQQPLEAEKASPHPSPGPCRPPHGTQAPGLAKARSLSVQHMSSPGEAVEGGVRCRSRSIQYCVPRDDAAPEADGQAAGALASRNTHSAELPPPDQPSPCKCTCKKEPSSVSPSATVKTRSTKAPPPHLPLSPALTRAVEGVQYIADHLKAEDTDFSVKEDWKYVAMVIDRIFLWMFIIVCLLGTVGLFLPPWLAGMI
T2 sequence (P17787 26-502): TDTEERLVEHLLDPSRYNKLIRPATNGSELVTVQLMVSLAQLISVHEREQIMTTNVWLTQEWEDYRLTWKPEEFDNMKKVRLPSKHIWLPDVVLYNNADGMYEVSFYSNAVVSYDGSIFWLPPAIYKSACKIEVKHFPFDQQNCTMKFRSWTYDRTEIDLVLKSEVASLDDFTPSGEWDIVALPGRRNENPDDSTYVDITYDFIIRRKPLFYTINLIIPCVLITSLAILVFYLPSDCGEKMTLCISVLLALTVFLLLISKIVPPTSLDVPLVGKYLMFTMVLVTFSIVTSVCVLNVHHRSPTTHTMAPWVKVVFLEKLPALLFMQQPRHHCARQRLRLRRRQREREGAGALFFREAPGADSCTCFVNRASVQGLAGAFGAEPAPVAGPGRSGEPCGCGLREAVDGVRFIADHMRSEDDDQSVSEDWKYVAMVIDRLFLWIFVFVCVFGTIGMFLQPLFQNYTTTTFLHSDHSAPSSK
Description: as §1

[6] = target: T3, Cholecystokinin CKK1 (CCKA) (Homo sapiens, UniProt P32238); assay: Receptor Profiling 218030; type: binding
T3 construct: purchased Eurofins Discovery Services (Panlabs safety panel)
T3 sequence (P32238 whole entry): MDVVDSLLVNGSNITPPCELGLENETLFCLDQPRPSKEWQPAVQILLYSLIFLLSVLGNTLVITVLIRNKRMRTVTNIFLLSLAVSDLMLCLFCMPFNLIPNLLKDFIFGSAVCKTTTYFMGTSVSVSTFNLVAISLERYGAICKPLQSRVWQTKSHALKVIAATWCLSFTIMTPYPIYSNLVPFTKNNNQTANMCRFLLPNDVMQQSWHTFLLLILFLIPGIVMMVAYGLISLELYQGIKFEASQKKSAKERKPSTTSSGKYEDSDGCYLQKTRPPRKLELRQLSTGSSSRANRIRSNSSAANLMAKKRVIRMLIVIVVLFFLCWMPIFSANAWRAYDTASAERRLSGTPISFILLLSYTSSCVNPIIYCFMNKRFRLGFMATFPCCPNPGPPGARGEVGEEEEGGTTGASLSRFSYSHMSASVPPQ
Description: as §1

[7] = tested on: Acinetobacter baumannii; assay: MIC, microbroth dilution; type: cell-based
[8] = Aqueous solubility (nephelometric); type: physicochemical; settings: aqueous solution (buffer not named); single replicates
[9] = target: T4, Phosphodiesterase PDE3A (Homo sapiens, UniProt Q14432); assay: Receptor Profiling 152300; type: biochemical
T4 construct: Eurofins Discovery Services (contract assay) 152300
T4 sequence (Q14432 whole entry): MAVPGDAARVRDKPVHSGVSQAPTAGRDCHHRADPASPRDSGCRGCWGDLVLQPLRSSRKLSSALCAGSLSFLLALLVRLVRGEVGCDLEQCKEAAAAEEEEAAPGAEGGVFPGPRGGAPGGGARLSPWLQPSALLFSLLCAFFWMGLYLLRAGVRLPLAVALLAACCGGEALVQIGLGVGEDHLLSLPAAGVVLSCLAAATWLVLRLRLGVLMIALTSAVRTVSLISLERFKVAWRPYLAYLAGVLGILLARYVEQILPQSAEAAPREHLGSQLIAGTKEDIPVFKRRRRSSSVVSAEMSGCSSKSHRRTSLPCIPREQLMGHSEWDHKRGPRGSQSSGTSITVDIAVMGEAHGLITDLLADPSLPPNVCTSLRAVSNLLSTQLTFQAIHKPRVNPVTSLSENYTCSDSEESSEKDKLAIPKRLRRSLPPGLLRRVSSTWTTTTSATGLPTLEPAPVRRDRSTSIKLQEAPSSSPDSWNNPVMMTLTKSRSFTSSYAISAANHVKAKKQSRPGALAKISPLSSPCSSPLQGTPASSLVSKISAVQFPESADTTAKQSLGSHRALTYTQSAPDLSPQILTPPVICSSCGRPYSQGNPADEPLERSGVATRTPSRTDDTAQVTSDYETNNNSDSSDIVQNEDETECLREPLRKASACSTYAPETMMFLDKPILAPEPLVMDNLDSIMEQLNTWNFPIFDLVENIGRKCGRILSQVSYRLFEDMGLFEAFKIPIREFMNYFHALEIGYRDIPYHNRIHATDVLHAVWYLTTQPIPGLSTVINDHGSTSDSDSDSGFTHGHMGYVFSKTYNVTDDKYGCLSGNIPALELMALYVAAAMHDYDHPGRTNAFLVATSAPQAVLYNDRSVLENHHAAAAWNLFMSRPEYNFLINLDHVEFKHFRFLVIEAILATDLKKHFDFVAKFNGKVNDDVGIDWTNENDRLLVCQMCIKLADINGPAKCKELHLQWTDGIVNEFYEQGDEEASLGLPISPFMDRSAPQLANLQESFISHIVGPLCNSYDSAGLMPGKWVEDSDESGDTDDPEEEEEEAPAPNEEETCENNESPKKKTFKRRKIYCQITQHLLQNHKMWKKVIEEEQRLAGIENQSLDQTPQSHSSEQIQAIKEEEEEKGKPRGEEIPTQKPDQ
Description: as §1

[10] = tested on: CYP1A; assay: Cyp inhibition assay 4876; type: in vitro ADME, human; settings: catalog reference 4876
Description: as §1

[11] = tested on: Escherichia coli; assay: microbe, parasite or virus in culture; type: cell-based
[12] = Serum protein binding, murine; type: in vitro ADME, mouse; settings: Eurofins; for fraction unbound: mouse, serum, read-out: Serum binding (% bound) Murine (converted)
Description: Serum protein binding was determined using an equilibrium dialysis method as described. The amount of compound in each chamber (buffer and serum) was measured using methods for reverse-phase liquid chromatography/mass spectroscopy methods that were customized for each compound.

[13] = tested on: trans-translation; assay: microbe, parasite or virus in culture; type: cell-based, Escherichia coli

O=C(Nc1nnc(-c2ccc(F)cc2)o1)N1CCc2ccccc2C1 [MBX-4132]
MIC ([1]; Klebsiella pneumoniae ATCC 13883, replicates): ≥34 µg/mL | MIC ([1]; Klebsiella pneumoniae, ATCC13883, strain ATCC 13883, read-out: MIC): ≥ 34 µg/mL | MIC ([2]; Staphylococcus aureus ATCC 25923, replicates): 8.46 µg/mL (≈ 25 µM) | MIC ([2]; Staphylococcus aureus ATCC 35556, replicates): 4.23 µg/mL (≈ 12.5 µM) | MIC ([2]; Staphylococcus aureus BAA-1717, replicates): 1 µg/mL (≈ 2.96 µM) | MIC ([2]; Staphylococcus aureus MRSA-1094, replicates): 2.11 µg/mL and 4.23 µg/mL | MIC ([2]; Staphylococcus aureus MRSA-1234547263, replicates): 2.11 µg/mL and 4.23 µg/mL | MIC ([2]; Staphylococcus aureus MSSA, replicates): 2.11 µg/mL and 4.23 µg/mL | MIC ([2]; Staphylococcus aureus N315, NRS-70, replicates): 8.46 µg/mL (≈ 25 µM) | MIC ([2]; Staphylococcus aureus NRS-77, replicates): 2.11 µg/mL and 4.23 µg/mL | MIC ([2]; Staphylococcus aureus THC1516, replicates): 0.5 µg/ml (3×) and 1 µg/ml (2×) | MIC ([2]; Staphylococcus aureus, ATCC25923, Staphylococcus aureus ATCC 25923, replicates, read-out: MIC): 4.23 µg/mL (≈ 12.5 µM) | MIC ([2]; Staphylococcus aureus, ATCC25923, strain ATCC 25923, read-out: MIC): 6.3 µg/mL (≈ 18.6 µM) | MIC ([2]; Staphylococcus aureus, ATCC35556, Staphylococcus aureus ATCC 35556, replicates, read-out: MIC): 4.23 µg/mL (≈ 12.5 µM) | MIC ([2]; Staphylococcus aureus, ATCC35556, strain ATCC 35556, read-out: MIC): 4.2 µg/mL (≈ 12.4 µM) | MIC ([2]; Staphylococcus aureus, BAA1717, Staphylococcus aureus BAA-1717, replicates, read-out: MIC): 1 µg/mL (≈ 2.96 µM) | MIC ([2]; Staphylococcus aureus, BAA-1717 / MRSA, strain BAA-1717, MRSA, read-out: MIC): 1 µg/mL (≈ 2.96 µM) | MIC ([2]; Staphylococcus aureus, MRSA / NRS 70, strain N315, NRS-70, MRSA, read-out: MIC): 6.3 µg/mL (≈ 18.6 µM) | MIC ([2]; Staphylococcus aureus, MRSA, strain MRSA-1094, MRSA, read-out: MIC): 3.2 µg/mL (≈ 9.46 µM) | MIC ([2]; Staphylococcus aureus, MRSA, strain MRSA-1234547263, MRSA, read-out: MIC): 3.2 µg/mL (≈ 9.46 µM) | MIC ([2]; Staphylococcus aureus, MRSA, strain THC1516, MRSA, read-out: MIC): 1 µg/mL (≈ 2.96 µM) | MIC ([2]; Staphylococcus aureus, MSSA, strain MSSA, read-out: MIC): 3.2 µg/mL (≈ 9.46 µM) | MIC ([2]; Staphylococcus aureus, NRS70, Staphylococcus aureus N315, NRS-70, replicates, read-out: MIC): 4.23 µg/mL (≈ 12.5 µM) | MIC ([2]; Staphylococcus aureus, NRS77, strain NRS-77, read-out: MIC): 3.2 µg/mL (≈ 9.46 µM) | MIC ([2]; Staphylococcus aureus, Staphylococcus aureus THC1516, replicates, read-out: MIC): 0.5 µg/mL (≈ 1.48 µM) | inhibition at 10 µM [3]: -4% | Microsomal stability (t½, min) Murine ([4]; Reported value, Eurofins): >120 min | half-life ([4]; mouse, murine liver microsomes, read-out: MMS / Microsomal Stability (t1/2), murine): > 2 h | Average MLMS t½ ([4]; murine liver microsomes, average of replicates): >2 h | MLMS t½ ([4]; murine liver microsomes, individual replicates): >2 h | inhibition at 10 µM [5]: -5% | inhibition at 10 µM [6]: 66% | MIC ([7]; Acinetobacter baumannii ATCC 19606, replicates): ≥34 µg/mL | MIC ([7]; Acinetobacter baumannii, ATCC19606, Acinetobacter baumannii ATCC 19606, replicates, read-out: MIC): ≥ 34 µg/mL | MIC ([7]; Acinetobacter baumannii, ATCC19606, strain ATCC 19606, read-out: MIC): ≥ 34 µg/mL | Solubility [8]: 100 µM (≈ 33.8 µg/mL) | inhibition at 10 µM [9]: -6% | pIC50 (µM) reported [10]: No activity | MIC ([11]; E. coli KLE701 (ΔtolC::tet), source data, individual replicates): 4.229 µg/mL (≈ 12.5 µM) | MIC ([11]; Escherichia coli KLE700, replicates): ≥34 µg/mL | MIC ([11]; Escherichia coli KLE701 (ΔtolC), replicates): 2.11 µg/ml (4×) and 4.23 µg/ml (2×) | MIC ([11]; Escherichia coli, E. coli KLE701 (ΔtolC::tet), source data, individual replicates): 2.11 µg/mL (≈ 6.25 µM) | MIC ([11]; Escherichia coli, Escherichia coli KLE700, replicates, read-out: MIC): ≥ 34 µg/mL | MIC ([11]; Escherichia coli, strain KLE700, read-out: MIC): ≥ 34 µg/mL | MIC ([11]; Escherichia coli, strain KLE701, KLE700 ΔtolC::tet): 2.8 µg/mL (≈ 8.28 µM) | Serum binding (% bound) Murine ([12]; Replicate 1/2): 99.9% and 95.5% | fraction unbound ([12]; Average Value): 0.023 | fraction unbound ([12]; Reported value): 0.02 | IC50 ([13]; Escherichia coli, E. coli non-stop luciferase reporter, Fig. 1B, read-out: in vivo luc-trpAt IC50): 0.6 µM | fold induction at 0.046875 µM ([13]; Escherichia coli, read-out: fold induction, AVE 190919+190925, [4132] 0.046875 uM): 1.01 | fold induction at 0.0625 µM ([13]; Escherichia coli, read-out: fold induction, AVE 190919+190925, [4132] 0.0625 uM): 0.976 | fold induction at 0.09375 µM ([13]; Escherichia coli, read-out: fold induction, AVE 190919+190925, [4132] 0.09375 uM): 1.01 | fold induction at 0.125 µM ([13]; Escherichia coli, read-out: fold induction, AVE 190919+190925, [4132] 0.125 uM): 1.05 | fold induction at 0.1875 µM ([13]; Escherichia coli, read-out: fold induction, AVE 190919+190925, [4132] 0.1875 uM): 1.2 | fold induction at 0.25 µM ([13]; Escherichia coli, read-out: fold induction, AVE 190919+190925, [4132] 0.25 uM): 1.35 | fold induction at 0.375 µM ([13]; Escherichia coli, read-out: fold induction, AVE 190919+190925, [4132] 0.375 uM): 1.66 | fold induction at 0.5 µM ([13]; Escherichia coli, read-out: fold induction, AVE 190919+190925, [4132] 0.5 uM): 2 | fold induction at 0.75 µM ([13]; Escherichia coli, read-out: fold induction, AVE 190919+190925, [4132] 0.75 uM): 2.22 | fold induction at 1 µM ([13]; Escherichia coli, read-out: fold induction, AVE 190919+190925, [4132] 1 uM): 2.22 | fold induction at 1.5 µM ([13]; Escherichia coli, read-out: fold induction, AVE 190919+190925, [4132] 1.5 uM): 2.16 | fold induction at 0.046875 µM ([13]; Escherichia coli, read-out: fold induction, AVE per run, [4132] 0.046875 uM, run 190919 or 190925): 1.09 | fold induction at 0.0625 µM ([13]; Escherichia coli, read-out: fold induction, AVE per run, [4132] 0.0625 uM, run 190919 or 190925): 1.02 | fold induction at 0.09375 µM ([13]; Escherichia coli, read-out: fold induction, AVE per run, [4132] 0.09375 uM, run 190919 or 190925): 1.04 | fold induction at 0.125 µM ([13]; Escherichia coli, read-out: fold induction, AVE per run, [4132] 0.125 uM, run 190919 or 190925): 1.06 | fold induction at 0.1875 µM ([13]; Escherichia coli, read-out: fold induction, AVE per run, [4132] 0.1875 uM, run 190919 or 190925): 1.16 | fold induction at 0.25 µM ([13]; Escherichia coli, read-out: fold induction, AVE per run, [4132] 0.25 uM, run 190919 or 190925): 1.35 | fold induction at 0.375 µM ([13]; Escherichia coli, read-out: fold induction, AVE per run, [4132] 0.375 uM, run 190919 or 190925): 1.66 | fold induction at 0.5 µM ([13]; Escherichia coli, read-out: fold induction, AVE per run, [4132] 0.5 uM, run 190919 or 190925): 1.82 | fold induction at 0.75 µM ([13]; Escherichia coli, read-out: fold induction, AVE per run, [4132] 0.75 uM, run 190919 or 190925): 1.93 | fold induction at 1 µM ([13]; Escherichia coli, read-out: fold induction, AVE per run, [4132] 1 uM, run 190919 or 190925): 1.9 | fold induction at 1.5 µM ([13]; Escherichia coli, read-out: fold induction, AVE per run, [4132] 1.5 uM, run 190919 or 190925): 1.86 | fold induction, AVE per run ([13]; [4132] 0.046875 uM, run 190919 or 190925, 0.046875 µM): 0.9318 | fold induction, AVE per run ([13]; [4132] 0.0625 uM, run 190919 or 190925, 0.0625 µM): 0.9331 | fold induction, AVE per run ([13]; [4132] 0.09375 uM, run 190919 or 190925, 0.09375 µM): 0.9749 | fold induction, AVE per run ([13]; [4132] 0.125 uM, run 190919 or 190925, 0.125 µM): 1.0347 | fold induction, AVE per run ([13]; [4132] 0.1875 uM, run 190919 or 190925, 0.1875 µM): 1.234 | fold induction, AVE per run ([13]; [4132] 0.25 uM, run 190919 or 190925, 0.25 µM): 1.356 | fold induction, AVE per run ([13]; [4132] 0.375 uM, run 190919 or 190925, 0.375 µM): 1.653 | fold induction, AVE per run ([13]; [4132] 0.5 uM, run 190919 or 190925, 0.5 µM): 2.18 | fold induction, AVE per run ([13]; [4132] 0.75 uM, run 190919 or 190925, 0.75 µM): 2.51 | fold induction, AVE per run ([13]; [4132] 1 uM, run 190919 or 190925, 1 µM): 2.546 | fold induction, AVE per run ([13]; [4132] 1.5 uM, run 190919 or 190925, 1.5 µM): 2.459
